The values below come from patent US9505743B2, “Matrix metalloproteinase inhibitors and methods for the treatment of pain and other diseases” (AQUILUS PHARMACEUTICALS, INC., priority 2012, dated 2016).

The structures appear in SMILES notation. Some results are limits rather than exact numbers.

One series deals with MMP-12 (Homo sapiens (Human), UniProt P39900). The series is described as follows: MMP-12 inhibition assay (electrophoretic mobility shift). To be noted: compound 10 microMolar; Fluorescein-labeled peptide 4 microMolar; <50% considered not active; read-out: Average Percent Inhibition MMP-12. The format is biochemical. The procedure: MMP-12 inhibitor activity was carried out by first separating the cleaved and uncleaved substrates by charge via electrophoretic mobility shift and then measuring the fluorescence of the separated products and comparing them with control reactions to determine inhibition of enzyme activity. The MMP-12 assay was then run using an assay buffer comprising of 100 mM HEPES, pH 7.5, 0.01% Brij-35, 1.5 mM NaCl and 2 mM CaCl2. […] The reaction was started by first adding the substrate and then incubating the reaction mixture for 1 hour at room temperature. The reaction was then terminated via the addition of a stop buffer consisting of 100 mM HEPES (pH 7.5), 30 mM EDTA, 0.015% Brij-35, and 5% DMSO. […]
(In general: A gel shift assay detects complexes by their altered migration in electrophoresis.)

Series [1] can be described thus: In-vitro human microsomal stability. It is filed as in vitro ADME. As to conditions: human microsomes, compound 1 microMoles, at T = 60 minutes. Here is the method:
(§1) Human and Rat microsomal stability was determined for select compounds following the method of Houston (Houston, J B; Biochem. Pharmacol. 47, (1994), 1469). 1 μM concentration of compound and separate human and Rat microsomes (0.3 mg/mL, BD bioscience) were used in the in-vitro assay. To ensure proper energy supply for microsomal degradation of compound, an energy regenerating system comprised of 100 mM potassium phosphate, 2 mM NADPH, 3 mM MgCl2, pH=7.4 and the microsomal protein is added to each sample and the resulting suspension is then incubated in duplicate for 60 min at 37° C. in a rotary shaker. A control is run for each test agent in duplicate omitting NADPH to detect NADPH-free degradation. At T=0 and T=60 min., an aliquot is removed from each experimental and control reaction and then mixed with an equal volume of ice-cold Stop Solution (consisting of 0.3% acetic acid in acetonitrile containing haloperidol and diclofenac as internal standards). Stopped reactions are then incubated for at least ten minutes at −20° C., and an additional volume of water is then added. The samples are then centrifuged to remove precipitated protein, and the supernatants are then analyzed by LC-MS/MS to determine the percentage of compound remaining. The LC-MS/MS system used was an Agilent 6410 mass spectrometer coupled with an Agilent 1200 HPLC and a CTC PAL chilled autosampler, all controlled by MassHunter software (Agilent), or an ABI2000 mass spectrometer coupled with an Agilent 1100 HPLC and a CTC PAL chilled autosampler, all controlled by Analyst software (ABI). After separation on a C18 reverse phase HPLC column (Agilent, Waters, or equivalent) using an acetonitrile-water gradient system, peaks were analyzed by mass spectrometry (MS) using ESI ionization in MRM mode. Verapamil (high metabolized) and Warfarin (low metabolized) are used as controls to test the activity of the microsomal proteins. Table 15 and 16 below show the microsomal stability of select compounds in both human and Rat microsomes.

Series [2] can be described thus: In vivo rat pharmacokinetics, oral administration. As to conditions: plasma, PO 1.0 mg/kg, male Lewis rats, mean. The procedure: Six (6) male Lewis rats were used. Fasting was conducted at least 16 hours prior to dose administration. Food was returned at approximately 4 hours post dose. The animals were placed into 2 groups of 3 animals per group. The oral (PO) formulation for Groups 1 & 2 were prepared on the day of dosing at a target concentration of 0.5 mg/mL in 0.5% Methylcellulose (400 cps) to produce a white, homogeneous suspension. Dosing was performed as outlined in Table 24:
Each animal in Group 1 received prepared compound (56) by oral dose administration at a target dose level of 1.0 mg/kg and at a dose volume of 2 mL/kg. Each animal in Group 2 received prepared compound (45) by oral dose administration at a target dose level of 1.0 mg/kg and at a dose volume of 2 mL/kg (Table 24). Whole blood samples (0.250 mL; K2EDTA anticoagulant) were collected from each animal through a jugular vein catheter. Whole blood samples were collected from all animals pre-dose, and at 0.25, 0.5, 1, 2, 4, 8, 16, and 24 hours after dose administration. All blood samples were immediately placed on ice until processing. Whole blood samples were centrifuged at 2200×g for 10 minutes in a refrigerated centrifuge (5±3° C.) to isolate plasma. The plasma samples were transferred to individual polypropylene vials and immediately placed on dry ice before storage at nominally −20±5° C. The plasma samples some time later were then thawed and extracted and analyzed by high pressure liquid chromatography (HPLC) coupled to Mass Spectrometery (MS) (Table 25). Pharmacokinetic parameters (Table 25) were estimated using WinNonlin® pharmacokinetic software (Version No. 5.2.1) using a non-compartmental approach consistent with the PO route of administration.

Series [3] deals with Catalytic domain of MMP-2 (human recombinant) (Homo sapiens (Human), UniProt P08253). Briefly: MMP-2 inhibition assay. To be noted: read-out: Average Percent Inhibition MMP-2.
Procedure: A concentration of MMP inhibitor of the present invention was tested (10 microMolar) in duplicate runs. Catalytic domain of MMP-2 (human recombinant) enzyme (10 nanoMolar) was added to the compound solution. The mixture of enzyme and compound in assay buffer was then thoroughly mixed and incubated for 60 minutes at 37° C. Upon the completion of incubation, the assay was then started by the addition of 10 μM of fluorescent substrate Mca-P-L-G-L-Dpa-A-R-NH2 (Kd ˜8 microMolar). The fluorescent product, McaPLG, was then measured at excitation of 355 nm and emission 405 nm by an automatic plate multireader at 37° C. […] Any inhibition <50% is considered not active under these assay conditions.
Series [4] can be described thus: In-vitro rat microsomal stability. It is filed as in vitro ADME. To be noted: rat microsomes, compound 1 microMoles, at T = 60 minutes. The procedure:
as §1

Series [5] has as its target Catalytic domain of MMP-3 (human recombinant) (Homo sapiens (Human), UniProt P08254). The series is described as follows: MMP-3 inhibition assay. It is filed as biochemical. To be noted: compound 10 microMolar; substrate McaRPKPVENvalWRK(Dnp)NH2 10 microMolar; <50% considered not active; read-out: Average Percent Inhibition MMP-3. The procedure:
Catalytic domain of MMP-3 (human recombinant) enzyme was then added to the compound solution. […] A positive control was then run separately using the broad spectrum MMP inhibitor Tyr-hydroxamic acid as a control compound. […]

Series [6] concerns the target Catalytic domain of MMP-13 (human recombinant) (Homo sapiens (Human), UniProt P45452). Briefly: MMP-13 inhibition assay. It is filed as biochemical. The procedure:
Catalytic domain of MMP-13 (human recombinant) enzyme was then added to the compound solution. […] The time-dependent increase in fluorescence is measured at the 355 nm excitation and 405 nm emission by automatic plate multireader.

For series [7] the following is noted: clinical; cited from earlier work.
Series [8] addresses Catalytic domain of MMP-1 (human recombinant) (Homo sapiens (Human), UniProt P03956). Briefly: MMP-1 inhibition assay. The format is biochemical. To be noted: compound 10 microMolar; substrate 10 microMolar; <50% considered not active; read-out: Average Percent Inhibition MMP-1.
For series [9], the target named is Catalytic domain of MMP-9 (human recombinant) (Homo sapiens (Human), UniProt P14780). Briefly: MMP-9 inhibition assay. It is filed as biochemical. As to conditions: compound 10 microMolar; substrate DNP-Pro-Cha-Gly-Cys(Me)-His-Ala-Lys(N-Me-Abz)-NH2 10 microMolar; <50% considered not active; read-out: Average Percent Inhibition MMP-9.
Catalytic domain of MMP-9 (human recombinant), sequence (P14780 107-444): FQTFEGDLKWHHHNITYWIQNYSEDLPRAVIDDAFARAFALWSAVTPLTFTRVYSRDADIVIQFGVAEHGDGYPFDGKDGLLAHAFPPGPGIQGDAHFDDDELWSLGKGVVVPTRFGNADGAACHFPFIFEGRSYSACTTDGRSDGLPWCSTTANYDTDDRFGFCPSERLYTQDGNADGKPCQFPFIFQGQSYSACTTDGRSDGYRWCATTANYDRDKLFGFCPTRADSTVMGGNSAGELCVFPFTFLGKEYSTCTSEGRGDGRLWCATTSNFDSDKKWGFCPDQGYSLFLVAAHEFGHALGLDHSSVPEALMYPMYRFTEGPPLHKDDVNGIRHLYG
Procedure: A concentration of MMP inhibitor of the present invention was tested (10 microMolar) in duplicate runs. Catalytic domain of MMP-9 (human recombinant) enzyme (10 nanoMolar) was added to the compound solution. The mixture of enzyme and compound in assay buffer was then thoroughly mixed and incubated for 60 minutes at 37° C. Upon the completion of incubation, the assay was started by the addition of 10 μM of fluorescent substrate DNP-Pro-Cha-Gly-Cys(Me)-His-Ala-Lys(N-Me-Abz)-NH2 [Cha=β-cyclohexylalanyl; Abz=2-aminobenzoyl(anthraniloyl)] (Kd ˜7 microMolar). […] Any inhibition <50% is considered not active under these assay conditions.

Catalytic domain of MMP-3 (human recombinant), sequence (P08254 100-272): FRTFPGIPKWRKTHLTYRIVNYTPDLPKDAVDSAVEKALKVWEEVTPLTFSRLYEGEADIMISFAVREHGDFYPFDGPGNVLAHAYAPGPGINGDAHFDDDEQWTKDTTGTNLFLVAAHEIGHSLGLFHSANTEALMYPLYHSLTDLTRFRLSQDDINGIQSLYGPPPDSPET
Catalytic domain of MMP-1 (human recombinant), sequence (P03956 98-276): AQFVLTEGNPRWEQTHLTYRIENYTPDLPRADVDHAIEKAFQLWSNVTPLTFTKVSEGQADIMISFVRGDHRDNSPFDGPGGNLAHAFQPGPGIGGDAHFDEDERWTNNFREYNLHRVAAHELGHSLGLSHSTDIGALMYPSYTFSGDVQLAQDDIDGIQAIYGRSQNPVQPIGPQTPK
Catalytic domain of MMP-2 (human recombinant), sequence (P08253 110-465): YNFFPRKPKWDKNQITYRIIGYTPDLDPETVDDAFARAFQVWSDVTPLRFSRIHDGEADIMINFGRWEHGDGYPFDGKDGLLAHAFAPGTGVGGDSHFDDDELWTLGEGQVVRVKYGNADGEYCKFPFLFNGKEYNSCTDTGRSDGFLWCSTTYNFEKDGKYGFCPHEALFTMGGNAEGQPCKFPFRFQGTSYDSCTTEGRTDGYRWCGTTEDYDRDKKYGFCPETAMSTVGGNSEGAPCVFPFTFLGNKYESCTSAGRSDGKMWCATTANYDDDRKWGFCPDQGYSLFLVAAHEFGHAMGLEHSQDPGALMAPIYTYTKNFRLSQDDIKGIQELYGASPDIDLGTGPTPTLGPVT
MMP-12, sequence (P39900 106-470, species assumed): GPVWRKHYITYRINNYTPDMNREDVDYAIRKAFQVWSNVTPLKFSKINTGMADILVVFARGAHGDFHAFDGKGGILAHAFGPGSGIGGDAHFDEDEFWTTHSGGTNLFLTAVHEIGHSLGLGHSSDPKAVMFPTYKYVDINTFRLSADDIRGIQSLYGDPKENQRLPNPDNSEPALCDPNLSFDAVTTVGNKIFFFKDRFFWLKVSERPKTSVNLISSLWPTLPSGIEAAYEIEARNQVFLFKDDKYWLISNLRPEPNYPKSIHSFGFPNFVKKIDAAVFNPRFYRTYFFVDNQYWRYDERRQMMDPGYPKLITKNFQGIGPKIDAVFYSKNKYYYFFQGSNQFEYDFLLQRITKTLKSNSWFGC

In the case of `[2H]C([2H])(NC(=O)c1cc(C(=O)NCc2ccc(C(=O)O)cc2)ncn1)c1ccc(F)c(C)c1` [drawing 282], the inhibition (commonly the relative decrease from the control value, in per cent) at 10 µM at MMP-12 was 0.68%.
In the case of `[2H]C([2H])(NC(=O)c1cc(C(=O)NC([2H])([2H])c2ccc(F)c(C)c2)ncn1)c1ccc(F)c(C)c1` [drawing 270], the “Mean Remaining Parent with NADPH (%)” value in series [1] was determined as 5.5%.
Take `Cc1cc(CNC(=O)c2cc(C(=O)NCc3ccc(C(=O)O)cc3)ncn2)ccc1F` [Compound 45, 4-({[6-(4-Fluoro-3-methyl-benzylcarbamoyl)-pyrimidine-4-carbonyl]-amino}-methyl)-benzoic acid]: in series [2], the AUC(0-inf) (commonly total exposure, with the tail of the curve extrapolated) stood at 428 ng·h/mL; the AUC(0-t) (usually the area under the concentration-time curve up to a stated or last time point) was determined as 414 ng·h/mL; the Cmax (usually the maximum level reached in the sampled fluid or tissue) came out at 310 ng/mL; the time of peak concentration (Tmax) (in general, the time from dosing to the highest level) worked out at 24.6 min. Besides, in [2], the half-life (in general, how long it takes for the measured level to halve) is 110 min.
As to `Cc1cc(CNC(=O)c2cc(C(=O)NCc3ccc(F)c(C)c3)ncn2)ccc1F` [drawing 269], the “Mean Remaining Parent with NADPH (%)” value in series [1] turned out to be 5.3%.
Consider `[2H]C([2H])(NC(=O)c1cc(C(=O)NCc2ccc(C(=O)O)cc2)ncn1)c1ccc(F)c(C)c1` [drawing 278], for which the inhibition at 10 µM in series [3] came out at 8.19%.
On to `Cc1cc(CNC(=O)c2cc(C(=O)NCc3ccc(F)c(C)c3)ncn2)ccc1F` [drawing 276], for which the “% Mean Remaining Parent with NADPH (%)” value in series [4] worked out at 0.6%.
In the case of `[2H]C([2H])(NC(=O)c1cc(C(=O)NCc2ccc(C(=O)O)cc2)ncn1)c1ccc(F)c(C)c1` [drawing 281], the inhibition at 10 µM in series [5] is 1.31%.
Take `[2H]C([2H])(NC(=O)c1cc(C(=O)NCc2cccc(OC)c2)ncn1)c1ccc(C(=O)O)cc1`: in series [6], the half-inhibitory concentration (IC50) (in general, the concentration needed to halve the response being measured) was below 100 nM.
Take `[2H]C([2H])(NC(=O)c1cc(C(=O)NCc2ccc(C(=O)O)cc2)ncn1)c1ccc(F)c(C)c1` [drawing 272]: the “% Mean Remaining Parent with NADPH (%)” value in series [4] is given as 87.4%.
Turning to `Cc1cc(CNC(=O)c2cc(C(=O)NCc3ccc(C(=O)O)cc3)ncn2)ccc1F` [drawing 264], the “Mean Remaining Parent with NADPH (%)” value in [1] is 103%.
For `[2H]C([2H])(NC(=O)c1cc(C(=O)NCc2ccc(-c3nn[nH]n3)cc2)ncn1)c1cccc(OC)c1` [drawing 275], the “% Mean Remaining Parent with NADPH (%)” value in series [4] worked out at 57.4%.
`[2H]C([2H])(NC(=O)c1cc(C(=O)NCc2ccc(-c3nn[nH]n3)cc2)ncn1)c1cccc(OC)c1` [drawing 268]: the “Mean Remaining Parent with NADPH (%)” value in series [1] worked out at 95.3%.
The same measure, in the same setting: next, `[2H]C([2H])(NC(=O)c1cc(C(=O)NCc2ccc(F)c(C)c2)ncn1)c1ccc(C(=O)O)cc1` [drawing 265]: 104%.
Take `CNC(=O)[C@@H](NC(=O)[C@H](CC(C)C)[C@H](O)C(=O)NO)C(C)(C)C` [Marimastat, marimastat]: the Toxicities in humans entry in series [7] was “time-dependent and dose-dependent musculoskeletal toxicities (arthralgia, myalgia, tendinitis)”.
Consider `[2H]C([2H])(NC(=O)c1cc(C(=O)NCc2ccc(F)c(C)c2)ncn1)c1ccc(C(=O)O)cc1` [Compound 56, 4-(Dideutero-{[6-(4-fluoro-3-methyl-benzylcarbamoyl)-pyrimidine-4-carbonyl]-amino}-methyl)-benzoic acid], for which, in [2], the AUC(0-inf) was found to be 705 ng·h/mL, the AUC(0-t) was determined as 697 ng·h/mL, the concentration peaked (Cmax) at 362 ng/mL and the Tmax turned out to be 45 min. For the same compound, in series [2], the half-life was 73.2 min.
For the compound `[2H]C([2H])(NC(=O)c1cc(C(=O)NCc2ccc(C(=O)O)cc2)ncn1)c1ccc(F)c(C)c1` [drawing 266], the “Mean Remaining Parent with NADPH (%)” value in [1] is 95.6%.
Turning to `[2H]C([2H])(NC(=O)c1cc(C(=O)NCc2ccc(-c3nn[nH]n3)cc2)ncn1)c1cccc(OC)c1` [drawing 283], the inhibition at 1 µM in [6] (read-out: Average Percent Inhibition MMP-13) was 92%.
Turning to `[2H]C([2H])(NC(=O)c1cc(C(=O)NCc2ccc(F)c(C)c2)ncn1)c1ccc(C(=O)O)cc1` [drawing 273], in series [4], the “% Mean Remaining Parent with NADPH (%)” value worked out at 98.5%.
With `COc1cccc(CNC(=O)c2cc(C(=O)NCc3ccc(-c4nnn[nH]4)cc3)ncn2)c1` [drawing 267], the “Mean Remaining Parent with NADPH (%)” value in series [1] came to 88.1%.
As to `[2H]C([2H])(NC(=O)c1cc(C(=O)NCc2ccc(C(=O)O)cc2)ncn1)c1ccc(F)c(C)c1` [drawing 284], the IC50 in [6] was below 100 nM.
As for `[2H]C([2H])(NC(=O)c1cc(C(=O)NC([2H])([2H])c2ccc(F)c(C)c2)ncn1)c1ccc(F)c(C)c1` [drawing 277], the “% Mean Remaining Parent with NADPH (%)” value in [4] is given as 1.7%.
Turning to `[2H]C([2H])(NC(=O)c1cc(C(=O)NCc2ccc(F)c(C)c2)ncn1)c1ccc(C(=O)O)cc1` [drawing 285], in series [6], the IC50 is below 100 nM.
Turning to `COc1cccc(CNC(=O)c2cc(C(=O)NCc3ccc(-c4nnn[nH]4)cc3)ncn2)c1` [drawing 274], the “% Mean Remaining Parent with NADPH (%)” value in series [4] is recorded as 52.8%.
Same read-out and setting: next, `Cc1cc(CNC(=O)c2cc(C(=O)NCc3ccc(C(=O)O)cc3)ncn2)ccc1F` [drawing 271]: 90.7%.
For the compound `[2H]C([2H])(NC(=O)c1cc(C(=O)NCc2ccc(C(=O)O)cc2)ncn1)c1ccc(F)c(C)c1` [drawing 280], the inhibition at 10 µM in series [8] was 1.83%.
Take `[2H]C([2H])(NC(=O)c1cc(C(=O)NCc2ccc(C(=O)O)cc2)ncn1)c1ccc(F)c(C)c1` [drawing 279]: in series [9], the inhibition at 10 µM came to 2.39%.
